Row | Structure (SMILES) | melting point [°C]
1 | Cc1ccc(C(=O)Nc2cccc(C(F)(F)F)c2)cc1NC(=O)c1cnc2ccnn2c1 [Example 1, Pyrazolo[1,5-a]pyrimidine-6-carboxylic acid[2-methyl-5-(3-trifluoromethyl-phenylcarbamoyl)-phenyl]-amide] | 222 to 224
2 | Cc1ccc(NC(=O)c2cccc(C(F)(F)F)c2)cc1NC(=O)c1cnc2ccnn2c1 [Example 2, Pyrazolo[1,5-a]pyrimidine-6-carboxylic acid[2-methyl-5-(3-trifluoromethyl-benzoylamino)-phenyl]-amide] | 239 to 241
3 | Cc1ccc(C(=O)Nc2cccc(C(F)(F)F)c2)cc1NC(=O)C1=CNc2ccnn2C1 [Example 3, 4,7-Dihydro-pyrazolo[1,5-a]pyrimidine-6-carboxylic acid [2-methyl-5-(3-trifluoromethyl-phenylcarbamoyl)-phenyl]-amide] | 259 to 263
4 | Cc1cccc(C)c1NC(=O)c1cnc2c(-c3cccc(N4CCN(C)CC4)c3)cnn2c1 [Example 4, 3-[3-(4-Methyl-piperazin-1-yl)-phenyl]-pyrazolo[1,5-a]pyrimidine-6-carboxylic acid(2,6-dimethyl-phenyl)-amide] | 227 to 229

More lines, now with the values ahead:

Row | melting point [°C] | Structure (SMILES)
5 | 230 to 232 | COc1ccc(-c2cnn3cc(C(=O)Nc4c(C)cccc4C)cnc23)cc1OC [Example 5, 3-(3,4-Dimethoxy-phenyl)-pyrazolo[1,5-a]pyrimidine-6-carboxylic acid (2,6-dimethylphenyl)-amide]
6 | 267 to 269 | Cc1ccc(NC(=O)c2ccc(F)c(C(F)(F)F)c2)cc1NC(=O)c1cnc2ccnn2c1 [Example 6, Pyrazolo[1,5-a]pyrimidine-6-carboxylic acid[5-(4-fluoro-3-trifluoromthyl-benzoylamino)-2-methyl-phenyl]-amide]
7 | 256 to 258 | COc1ccc(C(=O)Nc2ccc(C)c(NC(=O)c3cnc4ccnn4c3)c2)cc1C(F)(F)F [Example 7, Pyrazolo[1,5-a]pyrimidine-6-carboxylic acid[5-(4-methoxy-3-trifluoromethyl-benzoylamino)-2-methyl-phenyl]-amide]

— patent publication US20100069395A1, “Pyrazolo[1,5-a]pyrimidine-3-carboxylic acid compounds as protein kinase inhibitors” (priority 2006, published 2010)
